The source of these data is patent publication US12540118B2, “Dendrene amide compound, bactericide and use thereof” (Jiangsu Flag Chemical Industry Co., Ltd., priority 2020, dated 2026).

One test has as its system Sphaerotheca fuliginea. Description: Sphaerotheca fuliginea potting method. The test is classed as in vivo. The note with it: Podosphaera fuliginea; 100 mg/L; read-out: Sphaerotheca fuliginea control rating. As for the experimental part: The fungicidal activity of the control agents and target compounds are determined. The test and investigation method refers to SOP-SC-1101 sphaerotheca fuliginea potting method in disinfectant rolls written by KANGZHUO and GUBAOGEN in “Standard operation specification for testing biological activity of pesticides”.
Turning to `C=C(c1c(Cl)cccc1Cl)C(C)N(C(=O)c1c(C(F)F)nn(C)c1F)C1CC1` (centres unmarked) [Compound 73], the pest or weed control at 100 µg/mL lay within 80 to 100%.
With `CC(C(=C(Cl)Cl)c1cc(C(F)(F)F)ccc1Cl)N(C(=O)c1c(C(F)F)nn(C)c1F)C1CC1` (centres unmarked) [Compound 209], the pest or weed control at 100 µg/mL was in the range of 80 to 100%.
As to `C=C(c1ccccc1Cl)C(C)N(C(=O)c1c(C(F)F)nn(C)c1F)C1CC1` (centres unmarked) [Compound 72], the pest or weed control at 100 µg/mL is 80 to 100%.
In the case of `C=C(CN(C(=O)c1c(C(F)F)nn(C)c1F)C1CC1)c1cc(C)ccc1C` [Compound 34], the pest or weed control at 100 µg/mL was 80 to 100%.
The same measure, in the same setting: then `Cn1nc(C(F)F)c(C(=O)N(CC(=C(Cl)Cl)c2ccc(Cl)cc2)C2CC2)c1Cl` [Compound 113], with 80 to 100%; and `Cn1nc(C(F)F)c(C(=O)N(CC(=C(Cl)Cl)c2ccccc2Cl)C2CC2)c1F` [Compound 116], with 80 to 100%; and `C=C(c1ccc(OC)cc1)C(C)N(C(=O)c1c(C(F)F)nn(C)c1F)C1CC1` (centres unmarked) [Compound 61], with 80 to 100%.
On to `C=C(c1ccc(C(F)(F)F)cc1Cl)C(C)N(C(=O)c1c(C(F)F)nn(C)c1F)C1CC1` (centres unmarked) [Compound 102], for which the pest or weed control at 100 µg/mL is 80 to 100%.
For `CC(C(=C(Cl)Cl)c1cccc(Br)c1)N(C(=O)c1c(C(F)F)nn(C)c1F)C1CC1` (centres unmarked) [Compound 186], the pest or weed control at 100 µg/mL lay in the range of 80 to 100%.
On to `C=C(c1ccc(F)cc1F)C(C)N(C(=O)c1c(C(F)F)nn(C)c1F)C1CC1` (centres unmarked) [Compound 64], for which the pest or weed control at 100 µg/mL lay in the range of 80 to 100%.
With `C=C(CN(C(=O)c1c(C(F)F)nn(C)c1F)C1CC1)c1cccc(Br)c1Br` [Compound 86], the pest or weed control at 100 µg/mL fell in the range of 80 to 100%.
For `Cn1nc(C(F)F)c(C(=O)N(CC(=C(Cl)Cl)c2c(Cl)cc(Cl)cc2Cl)C2CC2)c1F` [Compound 123], the pest or weed control at 100 µg/mL fell in the range of 80 to 100%.
In the case of `Cn1nc(C(F)F)c(C(=O)N(CC(=C(Cl)Cl)c2ccccc2F)C2CC2)c1F` [Compound 115], the pest or weed control at 100 µg/mL was in the range of 80 to 100%.
For `CC(C(=C(Cl)Cl)c1ccc(Cl)cc1F)N(C(=O)c1c(C(F)F)nn(C)c1F)C1CC1` (centres unmarked) [Compound 206], the pest or weed control at 100 µg/mL is 80 to 100%.
As for `C=C(c1cc(C)ccc1C)C(C)N(C(=O)c1c(C(F)F)nn(C)c1F)C1CC1` (centres unmarked) [Compound 89], the pest or weed control at 100 µg/mL was in the range of 80 to 100%.
`CCS(=O)(=O)c1cccc(C(CN(C(=O)c2c(C(F)F)nn(C)c2F)C2CC2)=C(Cl)Cl)c1` [Compound 164]: the pest or weed control at 100 µg/mL was 80 to 100%.
On to `C=C(CN(C(=O)c1c(C(F)F)nn(C)c1F)C1CC1)c1c(Cl)cc(Cl)cc1Cl` [Compound 19], for which the pest or weed control at 100 µg/mL lay within 80 to 100%.
`C=C(c1cccc(Br)c1)C(C)N(C(=O)c1c(C(F)F)nn(C)c1F)C1CC1` (centres unmarked) [Compound 81]: the pest or weed control at 100 µg/mL was 80 to 100%.

In another test the target is T1, succinate dehydrogenase (Sus scrofa, UniProt A5GZW8+D0VWV4+Q007T0).
T1 construct: isolated from porcine hearts; from tissue; host or cells: porcine heart
T1 sequence (Q0QF01 43-664 partner): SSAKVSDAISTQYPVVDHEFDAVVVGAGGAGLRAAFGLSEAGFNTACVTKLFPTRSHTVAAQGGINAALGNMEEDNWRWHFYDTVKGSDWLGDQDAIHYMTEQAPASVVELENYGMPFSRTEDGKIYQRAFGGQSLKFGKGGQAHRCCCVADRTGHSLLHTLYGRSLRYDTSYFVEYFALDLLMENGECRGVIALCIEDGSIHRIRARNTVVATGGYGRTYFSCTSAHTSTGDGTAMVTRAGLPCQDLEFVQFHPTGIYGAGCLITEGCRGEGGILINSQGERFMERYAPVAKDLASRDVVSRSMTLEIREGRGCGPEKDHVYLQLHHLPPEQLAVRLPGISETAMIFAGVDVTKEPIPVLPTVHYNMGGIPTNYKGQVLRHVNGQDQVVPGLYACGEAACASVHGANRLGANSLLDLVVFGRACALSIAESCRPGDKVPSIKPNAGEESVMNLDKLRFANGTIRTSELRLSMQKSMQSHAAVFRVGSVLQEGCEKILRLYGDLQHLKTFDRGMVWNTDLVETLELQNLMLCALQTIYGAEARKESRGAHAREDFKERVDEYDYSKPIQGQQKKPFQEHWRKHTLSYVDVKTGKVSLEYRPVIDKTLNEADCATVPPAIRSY
T1 sequence (Q007T0 29-280): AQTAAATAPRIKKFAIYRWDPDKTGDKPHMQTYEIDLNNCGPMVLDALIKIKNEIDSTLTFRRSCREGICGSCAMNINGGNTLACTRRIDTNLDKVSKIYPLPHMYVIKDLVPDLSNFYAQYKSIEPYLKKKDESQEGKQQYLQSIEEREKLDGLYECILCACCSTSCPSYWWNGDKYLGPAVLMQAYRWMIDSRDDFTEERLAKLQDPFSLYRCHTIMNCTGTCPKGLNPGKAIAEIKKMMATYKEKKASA
T1 sequence (D0VWV4 30-169): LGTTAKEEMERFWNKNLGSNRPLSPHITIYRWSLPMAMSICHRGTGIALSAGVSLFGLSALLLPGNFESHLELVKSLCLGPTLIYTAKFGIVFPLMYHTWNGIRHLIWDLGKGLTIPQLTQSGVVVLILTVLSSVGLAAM
T1 sequence (A5GZW8 57-159 limits assumed): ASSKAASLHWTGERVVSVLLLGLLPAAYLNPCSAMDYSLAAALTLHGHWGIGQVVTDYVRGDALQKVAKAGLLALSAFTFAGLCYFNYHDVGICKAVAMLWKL
Description: Enzyme activity assay, succinate dehydrogenase (DCIP reduction). The note with it: read-out: Inhibitors (10 μM, SQR). Format: biochemical, porcine. In a few lines:
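Porcine heart succinate dehydrogenase (2 nM) in 100 mM sodium phosphate pH 7.4, 0.3 mM EDTA, 20 mM sodium succinate and 53 μM DCIP at 23° C with stirring. DCIP reduction followed at 600 nm (ε 21 mM^−1 cm^−1); linear slope minus baseline gives initial rate.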
`C=C(c1c(Cl)cccc1Cl)C(C)N(C(=O)c1c(C(F)F)nn(C)c1F)C1CC1` (centres unmarked) [Compound 73]: the inhibition at 10 µM was more than 90%.
Take `CC(C(=C(Cl)Cl)c1cc(C(F)(F)F)ccc1Cl)N(C(=O)c1c(C(F)F)nn(C)c1F)C1CC1` (centres unmarked) [Compound 209]: the inhibition at 10 µM is more than 90%.
Regarding `C=C(c1ccccc1Cl)C(C)N(C(=O)c1c(C(F)F)nn(C)c1F)C1CC1` (centres unmarked) [Compound 72], the inhibition at 10 µM was more than 90%.
For `C=C(CN(C(=O)c1c(C(F)F)nn(C)c1F)C1CC1)c1cc(C)ccc1C` [Compound 34], the inhibition at 10 µM is more than 90%.
The same measure, in the same setting: then `Cn1nc(C(F)F)c(C(=O)N(CC(=C(Cl)Cl)c2ccc(Cl)cc2)C2CC2)c1Cl` [Compound 113], with more than 90%; and `Cn1nc(C(F)F)c(C(=O)N(CC(=C(Cl)Cl)c2ccccc2Cl)C2CC2)c1F` [Compound 116], with more than 90%; and `C=C(c1ccc(OC)cc1)C(C)N(C(=O)c1c(C(F)F)nn(C)c1F)C1CC1` (centres unmarked) [Compound 61], with more than 90%.
For the molecule `C=C(c1ccc(C(F)(F)F)cc1Cl)C(C)N(C(=O)c1c(C(F)F)nn(C)c1F)C1CC1` (centres unmarked) [Compound 102], the inhibition at 10 µM is more than 90%.
For the molecule `CC(C(=C(Cl)Cl)c1cccc(Br)c1)N(C(=O)c1c(C(F)F)nn(C)c1F)C1CC1` (centres unmarked) [Compound 186], the inhibition at 10 µM was more than 90%.
Still for that read-out and setting: the result for `C=C(c1ccc(F)cc1F)C(C)N(C(=O)c1c(C(F)F)nn(C)c1F)C1CC1` (centres unmarked) [Compound 64] reads more than 90%.
As to `C=C(CN(C(=O)c1c(C(F)F)nn(C)c1F)C1CC1)c1cccc(Br)c1Br` [Compound 86], the inhibition at 10 µM is more than 90%.
On the same count and under the same terms, the result for `Cn1nc(C(F)F)c(C(=O)N(CC(=C(Cl)Cl)c2c(Cl)cc(Cl)cc2Cl)C2CC2)c1F` [Compound 123] reads more than 90%.
Still for that read-out and setting: the result for `Cn1nc(C(F)F)c(C(=O)N(CC(=C(Cl)Cl)c2ccccc2F)C2CC2)c1F` [Compound 115] reads more than 90%; that for `CC(C(=C(Cl)Cl)c1ccc(Cl)cc1F)N(C(=O)c1c(C(F)F)nn(C)c1F)C1CC1` (centres unmarked) [Compound 206], more than 90%.
In the case of `C=C(c1cc(C)ccc1C)C(C)N(C(=O)c1c(C(F)F)nn(C)c1F)C1CC1` (centres unmarked) [Compound 89], the inhibition at 10 µM is more than 90%.
Regarding `CCS(=O)(=O)c1cccc(C(CN(C(=O)c2c(C(F)F)nn(C)c2F)C2CC2)=C(Cl)Cl)c1` [Compound 164], the inhibition at 10 µM is more than 90%.
Still for that read-out and setting: then `C=C(CN(C(=O)c1c(C(F)F)nn(C)c1F)C1CC1)c1c(Cl)cc(Cl)cc1Cl` [Compound 19], with more than 90%; and `C=C(c1cccc(Br)c1)C(C)N(C(=O)c1c(C(F)F)nn(C)c1F)C1CC1` (centres unmarked) [Compound 81], with more than 90%.

The test system of the next test is Erysiphe graminis. Description: Erysiphe graminis potting method. The test is classed as in vivo. Conditions: Blumeria graminis; 6.25 mg/L; read-out: Erysiphe graminis control rating. As for the experimental part:
The fungicidal activity of the control agents and target compounds are determined. The test and investigation method refers to SOP-SC-1116 Erysiphe graminis potting method in disinfectant rolls written by KANGZHUO and GUBAOGEN in “Standard operation specification for testing biological activity of pesticides”.
Turning to `C=C(CN(C(=O)c1c(C(F)F)nn(C)c1F)C1CC1)c1cc(C)ccc1C` [Compound 34], the pest or weed control at 6.25 µg/mL lay in the range of 70 to 80%.

Still in this test, the particulars now being: Blumeria graminis; 25 mg/L; read-out: Erysiphe graminis control rating.
On to `C=C(CN(C(=O)c1c(C(F)F)nn(C)c1F)C1CC1)c1cc(C)ccc1C` [Compound 34], for which the pest or weed control at 25 µg/mL is 80 to 100%.

Still in this test, the particulars now being: Blumeria graminis; 100 mg/L; read-out: Erysiphe graminis control rating.
As to `C=C(c1c(Cl)cccc1Cl)C(C)N(C(=O)c1c(C(F)F)nn(C)c1F)C1CC1` (centres unmarked) [Compound 73], the pest or weed control at 100 µg/mL was in the range of 80 to 100%.
On to `CC(C(=C(Cl)Cl)c1cc(C(F)(F)F)ccc1Cl)N(C(=O)c1c(C(F)F)nn(C)c1F)C1CC1` (centres unmarked) [Compound 209], for which the pest or weed control at 100 µg/mL lay in the range of 80 to 100%.
Regarding `C=C(c1ccccc1Cl)C(C)N(C(=O)c1c(C(F)F)nn(C)c1F)C1CC1` (centres unmarked) [Compound 72], the pest or weed control at 100 µg/mL fell in the range of 80 to 100%.
Turning to `C=C(CN(C(=O)c1c(C(F)F)nn(C)c1F)C1CC1)c1cc(C)ccc1C` [Compound 34], the pest or weed control at 100 µg/mL is 80 to 100%.
For the molecule `Cn1nc(C(F)F)c(C(=O)N(CC(=C(Cl)Cl)c2ccc(Cl)cc2)C2CC2)c1Cl` [Compound 113], the pest or weed control at 100 µg/mL lay within 80 to 100%.
On to `Cn1nc(C(F)F)c(C(=O)N(CC(=C(Cl)Cl)c2ccccc2Cl)C2CC2)c1F` [Compound 116], for which the pest or weed control at 100 µg/mL lay within 80 to 100%.
For the molecule `C=C(c1ccc(OC)cc1)C(C)N(C(=O)c1c(C(F)F)nn(C)c1F)C1CC1` (centres unmarked) [Compound 61], the pest or weed control at 100 µg/mL is 80 to 100%.
Same read-out and setting: then `C=C(c1ccc(C(F)(F)F)cc1Cl)C(C)N(C(=O)c1c(C(F)F)nn(C)c1F)C1CC1` (centres unmarked) [Compound 102], with 80 to 100%; and `CC(C(=C(Cl)Cl)c1cccc(Br)c1)N(C(=O)c1c(C(F)F)nn(C)c1F)C1CC1` (centres unmarked) [Compound 186], with 80 to 100%.
In the case of `C=C(c1ccc(F)cc1F)C(C)N(C(=O)c1c(C(F)F)nn(C)c1F)C1CC1` (centres unmarked) [Compound 64], the pest or weed control at 100 µg/mL is 80 to 100%.
Consider `C=C(CN(C(=O)c1c(C(F)F)nn(C)c1F)C1CC1)c1cccc(Br)c1Br` [Compound 86], for which the pest or weed control at 100 µg/mL is 80 to 100%.
In the case of `Cn1nc(C(F)F)c(C(=O)N(CC(=C(Cl)Cl)c2c(Cl)cc(Cl)cc2Cl)C2CC2)c1F` [Compound 123], the pest or weed control at 100 µg/mL was in the range of 80 to 100%.
Take `Cn1nc(C(F)F)c(C(=O)N(CC(=C(Cl)Cl)c2ccccc2F)C2CC2)c1F` [Compound 115]: the pest or weed control at 100 µg/mL was 80 to 100%.
Still for that read-out and setting: the result for `CC(C(=C(Cl)Cl)c1ccc(Cl)cc1F)N(C(=O)c1c(C(F)F)nn(C)c1F)C1CC1` (centres unmarked) [Compound 206] reads 80 to 100%; that for `C=C(c1cc(C)ccc1C)C(C)N(C(=O)c1c(C(F)F)nn(C)c1F)C1CC1` (centres unmarked) [Compound 89], 80 to 100%; that for `CCS(=O)(=O)c1cccc(C(CN(C(=O)c2c(C(F)F)nn(C)c2F)C2CC2)=C(Cl)Cl)c1` [Compound 164], 80 to 100%.
For `C=C(CN(C(=O)c1c(C(F)F)nn(C)c1F)C1CC1)c1c(Cl)cc(Cl)cc1Cl` [Compound 19], the pest or weed control at 100 µg/mL was in the range of 80 to 100%.
Same read-out and setting: the result for `C=C(c1cccc(Br)c1)C(C)N(C(=O)c1c(C(F)F)nn(C)c1F)C1CC1` (centres unmarked) [Compound 81] reads 80 to 100%.
